In test [1] the target is T1, RORγt-LBD (Homo sapiens, UniProt P51449).
T1 sequence (P51449 269-508 limits assumed): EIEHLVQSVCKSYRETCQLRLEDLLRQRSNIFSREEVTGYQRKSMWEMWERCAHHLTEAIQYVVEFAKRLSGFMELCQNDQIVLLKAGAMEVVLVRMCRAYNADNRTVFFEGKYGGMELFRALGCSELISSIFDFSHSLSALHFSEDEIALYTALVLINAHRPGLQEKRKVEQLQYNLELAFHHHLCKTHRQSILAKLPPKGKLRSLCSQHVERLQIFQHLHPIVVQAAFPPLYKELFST
Put plainly: Time-resolved fluorescence resonance energy-transfer assay (TR-FRET), co-activator peptide recruitment. It counts as biochemical. The arrangement: TR-FRET Biochemical Amax: unit not given here. The conditions noted are these: for EC50: His-RORγt-LBD 30 nM, SRC peptide 500 nM, agonistic activity, averages of one or more measurements, read-out: TR-FRET Biochemical EC50/; for TR-FRET Biochemical Amax: upper activation limit, His-RORγt-LBD, SRC peptide. The source says: I. Time-Resolved Fluorescence Resonance Energy-Transfer Assay (TR-FRET)
This experiment was a screening experiment for RORγt nuclear receptor agonists based on TR-FRET technology. When His-labeled RORγt-LBD receptor binds to receptor agonists, it may increase the recruitment of biotin-labeled co-activator peptides. Europium-His-RORγt-LBD is indirectly labeled by donor (Eu) by binding to Eu-anti-His antibody. Once Eu is activated by an energy source (such as flashlight or laser), the energy will be transferred to the co-activator indirectly labeled by allophycocyanin by binding of allophycocyanin-streptavidin and biotin-labeled co-activator. • 1. 10× buffer (500 mM Tris-HCl, 500 mM KCl, and 10 mM Na-EDTA) was prepared, pH value was adjusted to 7.0. The buffer was stored at 4° C. for later use and was restored to normal temperature before experiment; • 2. The 10× buffer was diluted to 1× with pure water. Final concentration of 0.01% Triton X-100 and 1 mM DTT (dithiothreitol) were added to prepare the assay buffer; • 3. DMSO was used to prepare 1000× compound stock solution. The compound solution was serial-diluted in 5-fold for 7 concentrations from the top concentration of 1000 nM/10000 nM. Then the 10× compound solution was prepared with assay buffer. An amount of 2 μL was aliquoted into the 20 μL system; • 4. 5×RORγt-LBD protein solution was unfreezed, and a solution of 5× concentration was prepared with assay buffer to obtain a final concentration of 30 nM. The whole operation was carried out on ice; • 5. 5×SRC peptide was unfreezed, and a solution of 5× concentration was prepared with assay buffer to obtain a final concentration of 500 nM. The whole operation was carried out on ice; • 6. 4 μL/well of RORγt-LBD receptor was added into the testing wells of 384-well plate, and the same amount of assay buffer was added to the control wells of non-RORγt-LBD group; • 7. 2 μL of compound was added into each well of 384-well plate; • 8. 4 μL of SRC peptide was added into each well of 384-well plate; • 9. 2× Eu-anti-6× His/APC-Streptavidin was diluted with Lance detection buffer to a final concentration of 0.25 nM and 5 nM, respectively, and then 10 μL of 2× Eu-anti-6× His/APC-Streptavidin was added into each well of 384-well plate; • 10. The mixed solution was incubated at 4° C. overnight; • 11. On the morning of the next day, the 384-well plate was incubated at room temperature for 1 hr. Then the corresponding signal values were read with PerkinElmer EnVision at a wavelength of 665/615 […]. The agonistic activity of the corresponding compound was calculated with Graphpad Prism 7.0 software.

Test [2] has as its target T2, RORγt (Homo sapiens, UniProt P51449).
T2 construct: The plasmid of pFN26A-RORγt-LBD and pG14.35 (Promega, Cat. No. E1370) were co-transfected into HEK 293 cells; expressed in transfected cells; host or cells: HEK 293 cells (Cat. No. GNHu18)
T2 sequence (P51449 269-508 limits assumed): T1 sequence (P51449 269-508 limits assumed)
Put plainly: RORγt cellular reporter gene detection assay.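 On Cellular Reporter Assay Amax: Ursolic Acid added as 5 µL of 20 µM medium per well.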 Format: cell-based. The conditions noted are these: 24 hrs; for EC50: HEK 293 cells co-transfected with pFN26A-RORγt-LBD and pG14.35, in presence of antagonist Ursolic acid, top concentration 50 μM; for Cellular Reporter Assay Amax: upper activation limit, HEK 293 cells, in presence of antagonist Ursolic acid. The protocol:
II. RORγt Cellular Reporter Gene Detection Assay
In this experiment, RORγt Reporter Gene Detection method was used to evaluate the activation and specificity of compounds to RORγt in cells. The plasmid of pFN26A-RORγt-LBD and pG14.35 (Promega, Cat. No. E1370) were co-transfected into HEK 293 cells (Cat. No. GNHu18). The efficacy of compounds was evaluated with the presence of an antagonist Ursolic acid (Selleck, Cat. No. S2370-100 mg). The specific experimental process was as follow: • 1. The plasmids-co-transfected cells were inoculated into a 96-well plate (Corning, Cat. No 3610) in a fresh DMEM medium (Gibco, cat. No. 1773536) containing 10% fetal bovine serum (Gibco, Cat. No. 10099-141) at 30000 cells/40 μL/well; • 2. 5 μL of medium containing 20 μM Ursolic acid was added thereto; • 3. The dose effect was evaluated by a 4-fold dilution of the test compound starting from 50 μM; • 4. 5 μL of medium containing a compound concentration of 10-fold of its final test concentration was added; • 5. After the cells were incubated at 37° C. and 5% CO2 for 24 hrs, 50 μL of detection reagent was added to detect firefly fluorescence using PerkinElmerEnVision, and 50 μL of the second detection reagent was added to detect sea kidney fluorescence; • 6. A four-parameter curve simulated in GraphPad Prism was used to determine the concentration for 50% activation (EC50) and the upper activation limit (Amax) for each compound.

For the compound `C[C@@]1(OCCC(N)=O)CCN2c3ccc(-c4cc(F)cc(OC(F)F)c4)cc3N(S(=O)(=O)c3cccc(C(F)(F)F)c3)C[C@@H]2C1` [Example 122, 3-(((6aS,8R)-3-(3-(difluoromethoxy)-5-fluorophenyl)-8-methyl-5-((3-(trifluoromethyl)phenyl)sulfo-nyl)-6,6a,7,8,9,10-hexahydro-5H-pyrido[1,2-a]quinoxalin-8-yl)oxy) propanamide], in test [1], the EC50 amounted to 0.0984 µM and the “TR-FRET Biochemical Amax” value worked out at 0.68. For the same compound, in test [2], the EC50 came out at 0.447 µM and the “Cellular Reporter Assay Amax” value came to 1.1.
The like results for `O=S(=O)(c1cccc(C(F)(F)F)c1)N1CC2C[S+]([O-])CCN2c2ccc(-c3cc(F)cc(OC(F)F)c3)cc21` (centres unmarked) [Example 101, 8-(3-(difluoromethoxy)-5-fluorophenyl)-6-((3-(trifluoromethyl)phenyl)sulfonyl)-1,2,4,4a,5,6-hexahydro-[1,4]thiazino[4,3-a]quinoxaline 3-oxide] were, in that order, 0.0409 µM, 0.45, 0.913 µM and 3.9.
The like results for `CC1(C)C=C(c2ccc3c(c2)N(S(=O)(=O)c2cccc(C(F)(F)F)c2)C[C@@H]2CN(S(C)(=O)=O)CCN32)CC(C)(C)O1` [Example 19, (S)-3-(methylsulfonyl)-8-(2,2,6,6-tetramethyl-3,6-dihydro-2H-pyran-4-yl)-6-((3-(trifluorometh-yl)phenyl)sulfonyl)-2,3,4,4a,5,6-hexahydro-1H-pyrazino[1,2-a]quinoxaline] were, in that order, 0.0178 µM, 0.97, 0.0257 µM and 2.0.
For `N#CCC(=O)N1CCN2c3ccc(/C=C/c4c(Cl)cccc4C(F)(F)F)cc3N(S(=O)(=O)c3cccc(C(F)(F)F)c3)C[C@@H]2C1` [Example 29, (S,E)-3-(8-(2-chloro-6-(tri-fluoromethyl)styryl)-6-((3-(trifluoromethyl)phenyl)sulfonyl)-1,2,4,4a,5,6-hexa-hydro-3H-pyrazino[1,2-a]quinoxalin-3-yl)-3-oxopro-panenitrile], in test [1], the EC50 came to 0.0173 µM and the “TR-FRET Biochemical Amax” value was 0.84. Besides, in test [2], the EC50 was found to be 1.98 µM and the “Cellular Reporter Assay Amax” value came out at 6.7.
The like results for `CS(=O)(=O)N1CCN2c3ccc(-c4cc(F)cc(OC(F)F)c4)cc3N(S(=O)(=O)c3cc(C(F)(F)F)cnc3OCCO)C[C@@H]2C1` [Example 89, (S)-2-((3-((8-(3-(difluoromethoxy)-5-fluorophenyl)-3-(methylsulfonyl)-1,2,3,4,4a,5-hexahydro-6H-pyrazino[1,2-a]quinoxalin-6-yl)sulfonyl)-5-(trifluoromethyl)pyridin-2-yl)oxy)ethan-1-ol] were, in that order, 0.00053 µM, 0.40, 1.09 µM and 2.7.
The corresponding values for `CC(C(=O)O)N1CCN2c3ccc(C4=CC(C)(C)OC(C)(C)C4)cc3N(S(=O)(=O)c3cccc(C(F)(F)F)c3)C[C@@H]2C1` (stereo partly drawn) [Example 27, 2-((S)-8-(2,2,6,6-tetrameth-yl-3,6-dihydro-2H-pyran-4-yl)-6-((3-(trifluorometh-yl)phenyl)sulfonyl)-1,2,4,4a,5,6-hexahydro-3H-pyrazino[1,2-a]quinoxalin-3-yl)propanoic acid] are 0.00525 µM, 0.61, 0.228 µM and 3.9.
Turning to `COC(=O)C(C)N1CCN2c3ccc(/C=C(\C)c4c(F)cccc4Cl)cc3N(S(=O)(=O)c3cccc(C(F)(F)F)c3)C[C@@H]2C1` (stereo partly drawn) [Example 23, methyl 2-((S)-8-((E)-2-(2-chloro-6-fluorophenyl)prop-1-en-1-yl)-6-((3-(trifluoromethyl)phenyl)sulfonyl)-1,2,4,4a,5,6-hexahydro-3H-pyrazino[1,2-a]quinoxalin-3-yl)propanoate], in test [1], the EC50 is 0.0172 µM and the “TR-FRET Biochemical Amax” value came out at 0.79. In test [2], the EC50 worked out at 1.07 µM and the “Cellular Reporter Assay Amax” value was 3.8.
For the compound `COC(=O)CN1CCN2c3ccc(/C=C(\C)c4c(F)cccc4Cl)cc3N(S(=O)(=O)c3cccc(C(F)(F)F)c3)C[C@@H]2C1` [Example 44, methyl (S,E)-2-(8-(2-(2-chloro-6-fluorophenyl)prop-1-en-1-yl)-6-((3-(trifluoromethyl)phenyl)sulfonyl)-1,2,4,4a,5,6-hexahydro-3H-pyrazino[1,2-a]quinoxalin-3-yl)acetate], in test [1], the EC50 amounted to 0.0235 µM and the “TR-FRET Biochemical Amax” value worked out at 1.04. In test [2], the EC50 is 0.256 µM and the “Cellular Reporter Assay Amax” value amounted to 4.2.
The corresponding values for `C/C(=C\c1ccc2c(c1)N(S(=O)(=O)c1cccc(C(F)(F)F)c1)C[C@@H]1CN(C(CO)CO)CCN21)c1c(F)cccc1Cl` [Example 69, (S,E)-2-(8-(2-(2-chloro-6-fluorophenyl)prop-1-en-1-yl)-6-((3-(trifluoromethyl)phenyl)sulfonyl)-1,2,4,4a,5,6-hexahydro-3H-pyrazino[1,2-a]quinoxalin-3-yl)propane-1,3-diol] are 0.0444 µM, 1.05, 0.6 µM and 5.8.
The like results for `CN1c2ccc(/C=C/c3c(Cl)cccc3C(F)(F)F)cc2N(S(=O)(=O)c2cccc(C(F)(F)F)c2)C[C@@H]1CCC(=O)O` [Example 6, (S,E)-3-(6-(2-chloro-6-(tri-fluoromethyl)styryl)-1-meth-yl-4-((3-(trifluoromethyl)phenyl)sulfonyl)-1,2,3,4-tetrahydroquinoxalin-2-yl) propanoic acid] were, in that order, 0.0161 µM, 1.54, 0.528 µM and 4.2.
The like results for `C/C(=C\c1ccc2c(c1)N(S(=O)(=O)c1cccc(C(F)(F)F)c1)C[C@@H]1CN(CC(=O)O)CCN21)c1c(F)cccc1Cl` [Example 21, (S,E)-2-(8-(2-(2-chloro-6-fluoro-phenyl)prop-1-en-1-yl)-6-((3-(trifluoromethyl)phenyl)sulfonyl)-1,2,4,4a,5,6-hexa-hydro-3H-pyrazino[1,2-a]quinoxalin-3-yl)acetic acid] were, in that order, 0.0176 µM, 0.94, 0.273 µM and 5.5.
